Assay results reported in US5081113A, “Novel 3-keto-steroids” (Roussel Uclaf, priority 1989, dated 1992).
Read-outs that look alike come from different tables or passages of the source.

Key:
[1] = tested on: lipid peroxidation (MDA formation) in brain homogenates; test: Test of formation of malondialdehyde (MDA), non-enzymatic lipid peroxidation triggered by ferrous sulfate in brain homogenates; assay type: biochemical, S-D rats; settings: brain homogenate, 60 minutes at 37° C.
Method: 1.1 MDA formation was measured on 10-fold diluted (V/V) homogenates of brains of S-D rats (200 g) prepared in Krebs buffer pH 7.4 under the conditions described in J. Biol. Chem., Vol. 262 (1987), p. 10438 to 10440. 1 ml of homogenate was incubated for 60 minutes at 37° C. in the presence of 25 microliters of ethanol or water or a mixture of the two depending on the product containing or not containing the test product, after the addition of 25 microliters of ferrous sulfate solution prepared immediately before use in water outgassed with argon (200 micromoles final). 0.25 ml of incubated mixture were withdrawn and 1.5 ml of 1% strength phosphoric acid, 0.25 ml of a solution containing 200 micromoles of deferoxamine (Desferal^.phi., Ciba Geigy) in water, 10 microliters of butylated hydroxy-toluene (BHT) at a concentration of 8.7 mg/ml in ethanol and 0.5 ml of thiobarbituric acid (TBA) at a concentration of 0.6% in water were added. The mixture was heated to 100° C. for 45 minutes and cooled. 4 ml of n-butanol were added and the mixture was centrifuged for 15 minutes at 4000 rpm and the OD of the supernatant fraction was then read at 535 nm. The reaction blanks in the absence of Fe^++ were incubated under the same conditions.

[2] = tested on: lipid peroxidation (MDA formation) in rat liver microsomes; test: Test of formation of malondialdehyde (MDA), non-enzymatic lipid peroxidation triggered by ferrous sulfate in rat liver microsomes; assay type: biochemical, S-D rats; settings: ferrous sulfate/ascorbate, pH 7.4, 15 minutes at 37° C.
Method: The reaction was stopped by adding 2 ml of a 1M solution of trichloroacetic acid in 0.25M hydrochloric acid containing 0.4% of thiobarbituric acid. The mixture was heated to 85° C. for 25 minutes, cooled and centrifuged for 15 minutes at 3500 rpm, and the OD of the supernatant fraction was then read at 535 nm. The reaction blanks in the absence of Fe^++ were performed at the same time. The percentage inhibition was calculated as above.

[3] = tested on: lipid peroxidation (MDA formation) in rat liver microsomes; settings: liver microsomes of phenobarbital-pretreated rats, NADPH/carbon tetrachloride, pH 7.4, 15 minutes at 37° C.

CCN(CC)c1ccc(N2CCN(CC#C[C@]3(O)CC[C@H]4[C@@H]5C=C(C)C6=CC(=O)C=C[C@]6(C)[C@H]5[C@@H](O)C[C@@]43C)CC2)nc1N(CC)CC [Example 3, 17α-[3-{4-[5,6-bis(diethylamino)-2-pyridyl]-1-piperazinyl}-1-propynyl]-6-methyl-Δ^1,4,6-androstatrien-11β,17β-diol-3-one]
percentage inhibition (MDA formation) ([1]; 1 * 10^-4 M): 62.9 ± 4.5% | percentage inhibition (MDA formation) ([1]; 1 * 10^-5 M): 51.3 ± 13.7% | percentage inhibition (MDA formation) ([1]; 5 * 10^-4 M): 64.2 ± 10% | percentage inhibition (MDA formation) ([2]; 1*10^-5 M): 95.5% | percentage inhibition (MDA formation) ([2]; 1*10^-6 M): 55 ± 9% | percentage inhibition (MDA formation) ([2]; 5*10^-6 M): 99.5% | percentage inhibition (MDA formation) ([3]; 1*10^-5 M): 93% | percentage inhibition (MDA formation) ([3]; 1*10^-6 M): 48 ± 2% | percentage inhibition (MDA formation) ([3]; 5*10^-6 M): 89 ± 2%

CCN(CC)c1ccc(N(CC)CC)c(N2CCN(CC#C[C@]3(O)CC[C@H]4[C@@H]5C=C(C)C6=CC(=O)C=C[C@]6(C)[C@H]5[C@@H](O)C[C@@]43C)CC2)n1 [Example 4, 17α-[3-{4-[3,6-bis(diethylamino)-2-pyridyl]-1-piperazinyl}-1-propynyl]-6-methyl-Δ^1,4,6-androstatrien-11β,17β-diol-3-one]
percentage inhibition (MDA formation) ([1]; 1 * 10^-4 M): 51.0 ± 12.4% | percentage inhibition (MDA formation) ([1]; 1 * 10^-5 M): 48.5 ± 13.1% | percentage inhibition (MDA formation) ([1]; 5 * 10^-4 M): 65.4 ± 10.1% | percentage inhibition (MDA formation) ([2]; 1*10^-5 M): 100% | percentage inhibition (MDA formation) ([2]; 1*10^-6 M): 51 ± 3% | percentage inhibition (MDA formation) ([2]; 5*10^-6 M): 99.5% | percentage inhibition (MDA formation) ([3]; 1*10^-5 M): 91 ± 2% | percentage inhibition (MDA formation) ([3]; 1*10^-6 M): 49 ± 2% | percentage inhibition (MDA formation) ([3]; 5*10^-6 M): 85%

CC1=C[C@@H]2[C@H]([C@@H](O)C[C@@]3(C)[C@H]2CC[C@@]3(O)C#CCN2CCN(c3cc(N4CCCC4)nc(N4CCCC4)n3)CC2)[C@@]2(C)C=CC(=O)C=C12 [Example 2]
percentage inhibition (MDA formation) ([1]; 1 * 10^-4 M): 26.6 ± 3.9% | percentage inhibition (MDA formation) ([1]; 1 * 10^-5 M): 28.0 ± 4.1% | percentage inhibition (MDA formation) ([1]; 5 * 10^-4 M): 53.1 ± 7.8% | percentage inhibition (MDA formation) ([2]; 1*10^-5 M): 11.3 ± 2% | percentage inhibition (MDA formation) ([2]; 1*10^-6 M): 0 ± 2% | percentage inhibition (MDA formation) ([2]; 5*10^-5 M): 85 ± 1.5% | percentage inhibition (MDA formation) ([2]; 5*10^-6 M): 0 ± 3% | percentage inhibition (MDA formation) ([3]; 1*10^-5 M): 80 ± 1% | percentage inhibition (MDA formation) ([3]; 1*10^-6 M): 22 ± 1.5% | percentage inhibition (MDA formation) ([3]; 5*10^-6 M): 61 ± 1.5%

C[C@]12CCC(=O)C=C1C=C[C@@H]1[C@@H]2[C@@H](O)C[C@@]2(C)[C@H]1CC[C@@]2(O)C#CCN1CCN(c2cc(N3CCCC3)nc(N3CCCC3)n2)CC1 [Example 1, 17α-[3-{4-[(2,6-bis(1-pyrrolidinyl)-4-pyrimidinyl]-1-piperazinyl}-1-propynyl]-Δ^4,6-androstadien-11β,17β-diol-3-one methanesulfonate]
percentage inhibition (MDA formation) ([1]; 1 * 10^-4 M): 9.8 ± 11.2% | percentage inhibition (MDA formation) ([1]; 1 * 10^-5 M): -10.6 ± 9.0% | percentage inhibition (MDA formation) ([1]; 5 * 10^-4 M): 60.8 ± 3.0% | percentage inhibition (MDA formation) ([2]; 1*10^-5 M): 46 ± 3% | percentage inhibition (MDA formation) ([2]; 1*10^-6 M): 0 ± 18% | percentage inhibition (MDA formation) ([2]; 5*10^-5 M): 97.5 ± 0.5% | percentage inhibition (MDA formation) ([2]; 5*10^-6 M): 19.5 ± 6% | percentage inhibition (MDA formation) ([3]; 1*10^-5 M): 86 ± 2% | percentage inhibition (MDA formation) ([3]; 1*10^-6 M): 16 ± 1% | percentage inhibition (MDA formation) ([3]; 5*10^-6 M): 75 ± 4%
